Experiments:
Details in all cases: 72 h
Caco-2 [1] = test: cell viability relative to DMSO; higher = less toxic
Calu-3 [2] = test: as above
HepG2 [3] = test: as above
U2OS [4] = test: as above
Vero E6 [5] = test: as above
Calu-3 [6] = test: relative viability EC50 (midpoint between 100% and the lowest measured viability); higher = less toxic
Caco-2 [7] = test: drug sensitivity score (DSS) for viability; higher = more toxic; extreme values may be limits of the assay
Calu-3 [8] = test: as above
HepG2 [9] = test: as above
U2OS [10] = test: as above
Vero E6 [11] = test: as above
Caco-2 [12] = test: relative viability EC50 (midpoint between 100% and the lowest measured viability); higher = less toxic
U2OS [13] = test: as above
Vero E6 [14] = test: as above

Row | SMILES | cell viability (Caco-2 [1]; 1 nM) [%] | cell viability (Caco-2 [1]; 10 nM) [%] | cell viability (Caco-2 [1]; 100 nM) [%] | cell viability (Caco-2 [1]; 1000 nM) [%] | cell viability (Caco-2 [1]; 10000 nM) [%] | cell viability (Calu-3 [2]; 1 nM) [%] | cell viability (Calu-3 [2]; 10 nM) [%] | cell viability (Calu-3 [2]; 100 nM) [%] | cell viability (Calu-3 [2]; 1000 nM) [%] | cell viability (Calu-3 [2]; 10000 nM) [%] | cell viability (HepG2 [3]; 1 nM) [%] | cell viability (HepG2 [3]; 10 nM) [%] | cell viability (HepG2 [3]; 100 nM) [%] | cell viability (HepG2 [3]; 1000 nM) [%] | cell viability (HepG2 [3]; 10000 nM) [%] | cell viability (U2OS [4]; 1 nM) [%] | cell viability (U2OS [4]; 10 nM) [%] | cell viability (U2OS [4]; 100 nM) [%] | cell viability (U2OS [4]; 1000 nM) [%] | cell viability (U2OS [4]; 10000 nM) [%] | cell viability (Vero E6 [5]; 1 nM) [%] | cell viability (Vero E6 [5]; 10 nM) [%] | cell viability (Vero E6 [5]; 100 nM) [%] | cell viability (Vero E6 [5]; 1000 nM) [%] | cell viability (Vero E6 [5]; 10000 nM) [%] | relative viability EC50 (Calu-3 [6]) [µM] | drug sensitivity score (Caco-2 [7]) | drug sensitivity score (Calu-3 [8]) | drug sensitivity score (HepG2 [9]) | drug sensitivity score (U2OS [10]) | drug sensitivity score (Vero E6 [11]) | relative viability EC50 (Caco-2 [12]) [µM] | relative viability EC50 (U2OS [13]) [µM] | relative viability EC50 (Vero E6 [14]) [µM]
1 | CC(C)(C)c1ccc(-c2nc3c(N4CCN(Cc5ccc6nccnc6c5)CC4)cccc3[nH]2)cc1 | 109 | 91.7 | 90.3 | 100 | 59.7 | 104 | 104 | 111 | 106 | 92.1 | 98.3 | 96.5 | 94.4 | 97.7 | 66.9 | 92.8 | 101 | 93.4 | 99.2 | 54.8 | 102 | 105 | 103 | 95.6 | 64.5 | > 10 | 2 | 0 | 1.9 | 2.4 | 2.4 |  |  | 
2 | CCCCC1CCC(c2nc(-c3ccncc3)no2)CC1 (stereo not given) | 106 | 98.8 | 104 | 98.7 | 103 |  |  |  |  |  |  |  |  |  |  |  |  |  |  |  |  |  |  |  |  |  | 0 |  |  |  |  | > 10 |  | 
3 | COc1cc(N)c(Cl)cc1C(=O)OCCCN1CCCCC1 | 116 | 108 | 104 | 98.3 | 107 | 106 | 102 | 93.5 | 114 | 104 |  |  |  |  |  | 101 | 94.9 | 98.1 | 104 | 102 | 106 | 104 | 107 | 104 | 99.7 | > 10 | 0 | 0 |  | 0 | 0 | > 10 | > 10 | > 10
4 | CS(=O)(=O)Nc1c(O)ccc2c1CCC[C@H]2C1=NCCN1 | 109 | 104 | 101 | 101 | 96.7 |  |  |  |  |  |  |  |  |  |  |  |  |  |  |  |  |  |  |  |  |  | 0 |  |  |  |  | > 10 |  | 
5 | C[C@H](N/C(=N/C#N)Nc1cccc2ncccc12)c1ccccc1 | 101 | 112 | 104 | 97.8 | 98.6 | 97 | 102 | 107 | 103 | 94.8 |  |  |  |  |  | 108 | 102 | 99.1 | 109 | 101 |  |  |  |  |  | > 10 | 0 | 0 |  | 0 |  | > 10 | > 10 | 
6 | Cc1cc2c(cc1C(F)(F)F)N(C(=O)Nc1ccc(Oc3cccnc3C)nc1)CC2 | 97.3 | 101 | 104 | 97.1 | 91.2 | 96.4 | 98.8 | 96 | 104 | 80.6 |  |  |  |  |  | 101 | 106 | 95.8 | 105 | 95.4 |  |  |  |  |  | > 10 | 0 | 0.4 |  | 0 |  | > 10 | > 10 | 
7 | O=C1NC(=O)/C(=C/c2ccc3nccc(-c4ccncc4)c3c2)S1 | 92.9 | 96.2 | 89.3 | 95.5 | 36 | 103 | 101 | 97.8 | 89.1 | 31.4 | 95.1 | 105 | 94.9 | 93 | 53.8 | 96.1 | 95.5 | 100 | 91.7 | 37.9 | 93.6 | 99.1 | 89.9 | 90.5 | 53.5 | 1.94 | 4.2 | 5.6 | 3.6 | 4.8 | 3.9 | 2.6 | 2.09 | 
8 | O=[N+]([O-])c1cc([N+](=O)[O-])c(/C=C/c2ccc(Cl)c(Cl)c2)cc1/C=C/c1ccc(Cl)c(Cl)c1 | 91.4 | 97.2 | 89 | 102 | 86.3 | 100 | 98.5 | 87.2 | 97.6 | 95.9 |  |  |  |  |  | 68.7 | 102 | 94.8 | 110 | 94.1 | 103 | 105 | 101 | 102 | 97.3 | > 10 | 0.1 | 0 |  | 0 | 0 | > 10 | > 10 | > 10
9 | CCNCCCNCCCCNCCCNCC [1,12-Besm] | 103 | 86.3 | 96.5 | 91.7 | 61.8 | 95.6 | 110 | 110 | 102 | 86.7 | 104 | 104 | 106 | 86.7 | 50.5 | 102 | 96.1 | 96.6 | 89.5 | 79.1 | 101 | 104 | 99.4 | 97.5 | 70.5 | > 10 | 3.2 | 0.1 | 4.7 | 1.3 | 1.7 |  | > 10 | 
10 | O=c1[nH]cc(F)c(=O)[nH]1 [5-fluorouracil] | 80 | 103 | 85.7 | 93.4 | 79.6 | 93.5 | 99.2 | 98.1 | 101 | 90.5 | 103 | 93 | 103 | 83.7 | 54.4 | 100 | 97.4 | 97.6 | 95.6 | 64 | 102 | 95.7 | 106 | 95.8 | 62.9 | > 10 | 1.4 | 0 | 4.7 | 2.4 | 2.5 | > 10 |  | 
11 | CCOC(=O)c1cc(C#N)c(N2CCC(C(=O)NS(=O)(=O)Cc3ccccc3)CC2)nc1C [AZD1283] | 98.4 | 94.3 | 101 | 95.5 | 97 | 96.2 | 104 | 112 | 97.2 | 104 |  |  |  |  |  | 95.7 | 100 | 105 | 91.2 | 101 | 103 | 106 | 100 | 104 | 99.5 | > 10 | 0 | 0 |  | 0 | 0 | > 10 | > 10 | > 10
12 | O=C(Nc1cccc(Nc2ncc(Br)c(NCCc3cnc[nH]3)n2)c1)N1CCCC1 [BX-912] | 103 | 93.4 | 102 | 94.6 | 101 | 108 | 95.4 | 104 | 102 | 91.2 | 103 | 91.8 | 103 | 82.3 | 55.8 | 102 | 93.2 | 97.5 | 98.3 | 55.9 | 97.7 | 93.5 | 94.4 | 95.8 | 91.5 | > 10 | 0 | 0 | 4.7 | 2.5 | 0 | > 10 |  | > 10
13 | CCCCCCCCCCCCCCOc1ccc(C(=O)O)o1 [KD-023] | 95 | 92.9 | 105 | 92.5 | 82.5 |  |  |  |  |  | 99.8 | 103 | 103 | 105 | 69.9 | 97.4 | 97.4 | 101 | 95.8 | 103 | 102 | 102 | 100 | 99 | 78.4 |  | 1.1 |  | 1 | 0 | 0.8 | > 10 | > 10 | > 10
14 | Cc1ccc(NC(=O)CCCCCC(=O)Nc2ccccc2N)cc1 [TC-H-106] | 103 | 97 | 97.6 | 96.2 | 81.9 | 98.5 | 99.7 | 92.9 | 87.4 | 59.4 | 99.7 | 109 | 98.9 | 93.4 | 57.3 | 101 | 96.4 | 98.4 | 95.7 | 80.3 | 105 | 102 | 98.2 | 102 | 77.6 |  | 0.9 | 3.4 | 3.3 | 1.1 | 0.6 | > 10 | > 10 | > 10
15 | CCCCNNC(=O)c1ccc(Br)cc1 [UF-010] | 99.5 | 91.9 | 92.8 | 101 | 84.3 | 101 | 98.2 | 96.8 | 95.6 | 64.2 | 106 | 94 | 105 | 88 | 61.5 | 100 | 104 | 100 | 99.8 | 70.2 | 104 | 98.9 | 101 | 102 | 69.6 |  | 0.3 | 2.4 | 3.6 | 1.3 | 1.2 | > 10 |  | 
16 | COC(=O)C1=C(C)NC(C)=C(C(=O)O[C@H]2CCN(Cc3ccccc3)C2)[C@H]1c1cccc([N+](=O)[O-])c1 [barnidipine] | 108 | 92.8 | 102 | 105 | 73.1 | 100 | 99.4 | 99.8 | 95.9 | 82.4 | 105 | 105 | 85.1 | 95.6 | 73.8 | 98.6 | 103 | 97.5 | 98.2 | 88.8 | 87.7 | 88.6 | 105 | 106 | 87.7 | > 10 | 0.8 | 0.9 | 1.4 | 0.1 | 0 |  | > 10 | > 10
17 | O=C(c1ccccc1)C(O)c1ccccc1 (stereo not given) [benzoin] |  |  |  |  |  |  |  |  |  |  |  |  |  |  |  |  |  |  |  |  |  |  |  |  |  |  |  | 0 | 0.3 | 0 | 0 |  |  | 
18 | CC(OC(=O)OC1CCCCC1)OC(=O)C1=C(CSc2nnnn2CCN(C)C)CS[C@@H]2[C@H](NC(=O)Cc3csc(N)n3)C(=O)N12 (stereo not given in full) [cefotiam-cilexetil] | 82.3 | 93.3 | 96.8 | 113 | 117 | 96.4 | 90 | 99.1 | 96.9 | 109 |  |  |  |  |  | 96.5 | 102 | 98.4 | 99.5 | 94.8 |  |  |  |  |  | > 10 | 0 | 0 |  | 0 |  | > 10 | > 10 | 
